Each structure is given as a SMILES string.

Test [1] deals with Sodium-dependent serotonin transporter (Rattus norvegicus, UniProt P31652). The experiment in a line: Inhibition of uptake of [3H]5-HT in synaptosomes from rat cortex. The test is classed as functional, subcellular, Brain.
The target in test [2] is T1, Adrenergic receptor alpha-2 (Rattus norvegicus, UniProt P22086+P19328+P22909).
T1 sequence (P22086 whole entry): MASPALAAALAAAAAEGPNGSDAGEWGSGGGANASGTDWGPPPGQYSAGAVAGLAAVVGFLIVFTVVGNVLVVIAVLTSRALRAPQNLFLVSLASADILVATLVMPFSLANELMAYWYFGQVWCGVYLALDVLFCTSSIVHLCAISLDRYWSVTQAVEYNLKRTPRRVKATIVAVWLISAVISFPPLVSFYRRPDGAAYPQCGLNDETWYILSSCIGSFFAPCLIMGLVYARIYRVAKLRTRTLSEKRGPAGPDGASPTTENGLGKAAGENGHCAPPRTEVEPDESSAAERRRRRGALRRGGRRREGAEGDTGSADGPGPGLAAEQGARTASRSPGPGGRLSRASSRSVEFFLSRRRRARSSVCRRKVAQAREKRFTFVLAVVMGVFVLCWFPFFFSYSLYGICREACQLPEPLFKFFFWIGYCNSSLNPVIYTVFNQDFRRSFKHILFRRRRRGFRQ
T1 sequence (P19328 whole entry): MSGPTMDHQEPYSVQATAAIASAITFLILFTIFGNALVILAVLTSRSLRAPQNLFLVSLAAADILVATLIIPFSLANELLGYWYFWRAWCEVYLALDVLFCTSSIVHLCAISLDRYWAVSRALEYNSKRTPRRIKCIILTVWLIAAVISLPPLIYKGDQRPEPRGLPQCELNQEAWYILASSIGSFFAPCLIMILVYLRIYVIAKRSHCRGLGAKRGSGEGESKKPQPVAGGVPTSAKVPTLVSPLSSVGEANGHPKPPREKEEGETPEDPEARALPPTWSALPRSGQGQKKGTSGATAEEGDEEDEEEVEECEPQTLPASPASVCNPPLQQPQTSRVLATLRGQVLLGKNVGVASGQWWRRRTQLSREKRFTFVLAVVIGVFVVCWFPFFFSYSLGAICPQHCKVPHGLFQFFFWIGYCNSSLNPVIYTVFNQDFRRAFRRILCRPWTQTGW
T1 sequence (P22909 whole entry): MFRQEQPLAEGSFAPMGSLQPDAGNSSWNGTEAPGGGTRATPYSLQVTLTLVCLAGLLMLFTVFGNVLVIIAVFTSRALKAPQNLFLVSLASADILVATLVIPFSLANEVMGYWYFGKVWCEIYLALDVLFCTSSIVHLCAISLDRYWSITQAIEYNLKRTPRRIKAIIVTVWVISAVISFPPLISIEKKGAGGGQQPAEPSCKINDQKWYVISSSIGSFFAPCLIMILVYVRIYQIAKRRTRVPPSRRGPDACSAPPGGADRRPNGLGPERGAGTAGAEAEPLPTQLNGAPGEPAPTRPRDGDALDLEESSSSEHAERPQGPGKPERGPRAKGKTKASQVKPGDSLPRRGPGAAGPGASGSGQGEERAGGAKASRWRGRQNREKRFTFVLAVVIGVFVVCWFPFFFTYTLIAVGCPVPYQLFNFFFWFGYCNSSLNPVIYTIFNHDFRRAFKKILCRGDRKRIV
The test can be described thus: Ability to displace [3H]rauwolscine from Alpha-2 adrenergic receptor in rat cortical membranes. Format: cell membranes.

Chain of Sodium-dependent serotonin transporter (P31652 whole entry): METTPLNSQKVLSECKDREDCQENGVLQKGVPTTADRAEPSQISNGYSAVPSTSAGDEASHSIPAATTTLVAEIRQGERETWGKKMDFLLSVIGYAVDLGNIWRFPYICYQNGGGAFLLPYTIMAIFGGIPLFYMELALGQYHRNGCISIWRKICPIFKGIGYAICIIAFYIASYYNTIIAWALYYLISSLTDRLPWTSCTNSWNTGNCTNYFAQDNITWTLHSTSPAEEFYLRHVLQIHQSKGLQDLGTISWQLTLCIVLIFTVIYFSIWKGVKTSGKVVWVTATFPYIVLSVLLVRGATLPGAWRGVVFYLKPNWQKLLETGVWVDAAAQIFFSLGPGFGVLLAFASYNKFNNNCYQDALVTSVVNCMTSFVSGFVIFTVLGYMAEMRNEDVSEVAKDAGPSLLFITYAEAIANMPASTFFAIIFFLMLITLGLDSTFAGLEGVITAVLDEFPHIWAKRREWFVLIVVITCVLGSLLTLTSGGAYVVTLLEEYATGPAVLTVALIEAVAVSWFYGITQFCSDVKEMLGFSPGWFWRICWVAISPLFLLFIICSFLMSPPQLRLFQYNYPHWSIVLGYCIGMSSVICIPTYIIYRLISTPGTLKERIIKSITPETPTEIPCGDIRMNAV

Take `CN(CCc1ccc2c(c1)OCO2)C[C@@H]1CCCc2c1ccc1ccoc21`: the IC50 in test [1] was found to be 0.101 µM. This compound yielded a Ki in test [2] of 0.00488 µM.

Consider `CN(CCc1ccc2c(c1)OCO2)C[C@@H]1CC[C@H]2CCOc3cccc1c32`, for which, in test [1], 0.436 µM corresponded to half-maximal inhibition (IC50). The compound further displayed a Ki in test [2] of 0.0941 µM.

In turn, `C1=C(CC2=NCCN2)CCc2ccccc21` [NAPAMEZOLE] displayed an IC50 in test [1] of 0.887 µM. Also, the Ki in test [2] was determined as 0.00417 µM.

Source of the values: ChEMBL document CHEMBL1129981 (J Med Chem, 1997).
